Experimental data reported in US5466682A, “Acylamino-alkyliden-hydroxy-bisphosphonic acids esters and salts thereof, wherein the acyl group is derived from an acid having antiinflammatory activity” (Istituto Gentili S.p.A., priority 1991, dated 1995).

Key:
Carrageenin Oedema = Carrageenin Oedema in Rat (% protection of paw oedema); format: in vivo, rat (S.D. male); conditions: subcutaneous; for % Protection 2nd hour: 2nd hour after carrageenin; for % Protection 4th hour: 4th hour after carrageenin; for % Protection 6th hour: 6th hour after carrageenin
Procedure: Carrageenin Oedema in Rat
Carrageenin+Ibuprofen (11 and 5.5 mg/kg)
Carrageenin+compound of example 8 (Br-Ax) (25.0 and 12.5 mg/kg)
Carrageenin+compound of example 7 (Br-Ab) (25.0 and 12.5 mg/kg)
Note: Ibuprofen doses are equimolar to the corresponding Br-Ab and Br-Ax doses.
S.D. male rats weighing 160-180 g
1) Control - (Carrageenin only)
Each group consisted of 5 males, trying to obtain the most homogeneous total weight for each group. The animals were inoculated subcutaneously with the test solutions homogenized in 5% gum Arabic which had been sterilized by filtration with "Acrodisc" Gelman with […] pores.
After 1 hour the animals were […] 0.1 ml of 1% carrageenin in sterile saline. Carrageenin was kept under stirring by means of a magnetic stirred, to make it as homogeneous as possible.
At the same time, the basal paw volumes were determined by means of a plethysmograph, so as to make possible to repeat the measurements in the most reliable way in the subsequent hours.
2 Hours after carrageenin inoculation, the measure of paw volumes was determined (2nd hour). Subsequently, said measurement was effected at the 4th and 6th hours from inoculation. After that, the % protection was calculated by means of the following formula: [formula]

[1] = system: bone calcium loss induced by retinoid; assay: Bone calcium loss induced by retinoid in thyroparathyroidectomized rat (plasma Ca); format: in vivo, rat (male); conditions: thyroparathyroidectomized rats, retinoid s.c. 3 days, 24 hours after last administration; for Plasmatic Ca increase after retinoid adm.: controls 1.11 ± 0.03; for % inhibition (of plasmatic Ca increase after retinoid): versus controls
Procedure: Male rats weighing about […] are thyroparathyroidectomyzed under Nembutal anaesthesia. The animals are treated with thyroxine on alternate days during all the test. 7 Days after surgery, blood is withdrawn by means of intracardiac puncture and Ca is determined on plasma. […] 24 Hours after the last administration, animals are killed and blood is recovered to determine Ca again.
BONE CALCIUM LOSS INDUCED BY RETINOID IN RAT

| SMILES | % Protection 2nd hour (Carrageenin Oedema; 12.5 mg/kg) [%] | % Protection 4th hour (Carrageenin Oedema; 12.5 mg/kg) [%] | % Protection 6th hour (Carrageenin Oedema; 12.5 mg/kg) [%] | % Protection 2nd hour (Carrageenin Oedema; 25.0 mg/kg) [%] | % Protection 4th hour (Carrageenin Oedema; 25.0 mg/kg) [%] | % Protection 6th hour (Carrageenin Oedema; 25.0 mg/kg) [%] | Plasmatic Ca increase after retinoid adm. [1] [mmol/lt] | % inhibition (of plasmatic Ca increase after retinoid) [1] [%] | % Protection 2nd hour (Carrageenin Oedema; 5.5 mg/kg) [%] | % Protection 4th hour (Carrageenin Oedema; 5.5 mg/kg) [%] | % Protection 6th hour (Carrageenin Oedema; 5.5 mg/kg) [%] | % Protection 2nd hour (Carrageenin Oedema; 11.0 mg/kg) [%] | % Protection 4th hour (Carrageenin Oedema; 11.0 mg/kg) [%] | % Protection 6th hour (Carrageenin Oedema; 11.0 mg/kg) [%] |
| --- | --- | --- | --- | --- | --- | --- | --- | --- | --- | --- | --- | --- | --- | --- |
| CC(C)Cc1ccc(C(C)C(=O)NCCCC(O)(P(=O)(O)O)P(=O)(O)O)cc1 (stereo not shown) [Br--Ab, [4-[2-(4-Isobutylphenyl)-propionyl]-amino-1-hydroxybutylidene]-diphosphonicacid] | 31 | 28 | 30 | 68 | 57 | 38 | 0.62 ± 0.03 | 44.1 |  |  |  |  |  |  |
| CC(C)Cc1ccc(C(C)C(=O)O)cc1 (stereo not shown) [Ibuprofen, ibuprofen, reference compound] |  |  |  |  |  |  |  |  | 18 | 3 | 4 | 21 | 25 | 28 |
| CC(C)Cc1ccc(C(C)C(=O)NCCCCCC(O)(P(=O)(O)O)P(=O)(O)O)cc1 (stereo not shown) [Br--Ax, [6-[2-(4-Isobutylphenyl)-propionyl]-amino-1-hydroxyhexylidene]-diphosphonicacid] | 41 | 36 | 48 | 42 | 21 | 56 | 0.75 ± 0.17 | 32.4 |  |  |  |  |  |  |
